Assay [1] deals with WI-38 lung fibroblasts. Kind of assay: In vitro uptake of 4175-LuT exosomes by WI-38 lung fibroblasts. It is filed as cell-based, human. Conditions: 10 μg/ml exosomes pre-incubated with peptide 30 minutes at 37° C., one hour with cells. The procedure: FIGS. 5A-M show ITGs functionally regulate organotropic exosome uptake and exosome-mediated metastasis. […] For western blot source data, see FIG. 9L. […] The WI-38 cell membrane was labelled with PKH67 dye and 4175-LuT exosomes were labelled with PKH26 dye. 10 μg/ml of exosomes were first incubated with PBS or HYD-1 peptide for 30 minutes at 37° C., followed by one hour incubation with WI-38 cells at 37° C. Excess exosomes were washed and cells were imaged (n=4 for two independent experiments); scale bar, 10 μm. […] For western blot source data, see FIG. 9M. […] Arrows indicate lung metastasis. Scale bar, 500 μm. […] For western blot source data, see FIG. 9N. […] An average of five random fields were counted at 20× magnification (data representative of 2 independent experiment n=3). […] Livers were harvested and analyzed for exosome positive cells by flow cytometry 24 hours post injection (n=4, except for the ITGαvβ5 antibody group, which n=5). […] Livers were digested and exosome-positive cells were quantified by flow cytometry (n=3). […] The lower panels show liver weight quantification (n=4 except for the control and peptide group for which n=3 of one experiment). […] Three days after cells were plated at equal density, cell numbers were counted using a hemocytometer (n=3 in 3 independent experiments). […]

Assay [2] concerns 4175-LuT exosome uptake in the lung. The assay can be described thus: Peptide blocking of 4175-LuT exosome uptake in the lung. Type of assay: in vivo, mice. Conditions: 0.06 μM peptide, 30 minutes at 37° C. prior to exosome injection. The procedure:
FIGS. 6A-D show exosomal ITGβ4 expression functionally contributes to 4175-LuT exosome localization and mediates lung metastasis. FIG. 6A, left upper panels, show NIR whole lung imaging of 4175-LuT, 4175β4KD or 4175-LuT-derived exosomes pre-incubated with RGD or HYD-1 peptides. Scale bar, 5 mm. […] (n=4, except 4175 for which n=6). Error bars, ± s.e.m. *P<0.05; **P<0.01 by one-way ANOVA. The left lower panels show fluorescence microscopy. Arrows indicate exosome foci. Scale bar, 50 μm. […] Error bars, ±s.e.m. ***P<0.001 by one-way ANOVA. FIG. 6B, left panel, show NIR whole lung imaging of 1833-BoT (n=5) or 1833-BoT overexpressing (OE) ITGβ4 (n=4) exosomes. Scale bar, 5 mm. […] Bioluminescence imaging of lung metastasis and quantification of luciferase activity (n=6, data representative of 2 independent experiments) is shown. […]
To assess lung, liver and bone exosome distribution, exosomes were injected via the retro-orbital venous sinus, the tail vein or intracardially. […] An average of five random fields was counted per sample at 20× magnification and representative pictures were taken at 40× magnification. […] To measure exosome uptake by specific cell types, labelled exosomes were injected 24 hours prior to tissue collection and tissues were analysed for exosome-positive cells by immunofluorescence. […] Whole lung images were analysed by image J software, by red fluorescence area in arbitrary unit (a.u.).

These results are taken from US11971402B2, “Methods and reagents for determination and treatment of organotropic metastasis” (CORNELL UNIVERSITY, priority 2015, dated 2024).

With “KIKMVISWKG (Artificial Amino acid HYD-1 peptide)”, the “uptake of 4175-LuT exosomes by WI-38 lung fibroblasts in vitro” value in assay [1] is listed as “prevented”. Besides, in assay [2], the “4175-LuT exosome uptake in the lung after pre-incubation with peptide” value is “dramatically reduced”.
